According to patent US7396682B2, “Method for cell adhesion and wound healing” (Regen Biotech, Inc., priority 2000, dated 2008):

Assays:
[1] = tested on: HCE cells; experiment: Divalent cation sensitivity of βig-h3-mediated adhesion; format: cell-based, human; conditions: cells incubated 30 min with divalent cations in HBS
Experimental: To analyze the divalent cation sensitivity of βig-h3-mediated adhesion, cells were suspended in HEPES-buffered saline (HBS) (150 mM NaCl, 25 mM HEPES, 2 mM EDTA, pH 7.4) at a density of 2×10^5 cells/ml and incubated at 37° C. for 30 min. Then, they were washed twice in HBS and resuspended in the same buffer. Aliquots of cells (50 μl) were then added to the microculture plate wells and incubated for 30 min at 37° C. in a humidified atmosphere of 5% CO2 with 50 μl aliquots of HBS containing divalent cations (MnCl2, MgCl2 or CaCl2) at a concentration twice as large as the final concentration. Subsequently, they were plated on ligand-coated dishes to perform the adhesion assay.

[2] = tested on: HCE cells; experiment: Inhibition assay of HCE cell adhesion using matrix peptides and reagents; format: cell-based, human; conditions: HCE cells preincubated 30 min with reagent; for inhibition of cell adhesion to fibronectin: dishes coated with 10 μg/ml fibronectin; for inhibition of cell adhesion to βig-h3: dishes coated with 10 μg/ml βig-h3
Experimental: In order to identify cell surface receptors involved in the cell adhesion activity of βig-h3 protein, an inhibition assay was performed using various reagents.
Initially, plastic culture dishes were coated with 10 μg/ml fibronectin, βigh3-WT or βigh3-ΔRGD. HCE cells were preincubated for 30 min in media containing 5 mM EDTA, 100 μg/ml βigh3-WT, 100 μg/ml βigh3-ΔRGD, 1 mM RGD, 1 mM RGE or 100 μg/ml fibronectin, or none of them, and then assayed for cell adhesion as in Example 1.

[3] = tested on: dermal whole layer wounds on the backs of rats; experiment: Wound healing with ointment bases on dermal whole layer wounds (2 cm) of rats; format: in vivo, rat; design: key to Formation grade of collagenous fibers at wound: 0: negative; 1+: insignificant; 2+: scatteringly formed; 3+: very dense; key to Re-ephithelialization of Wound (grade): 0: zero was set for the formation of no epithelial layers; 1+ for initiation of epithelialization; 2+ for incomplete epithelial layer structure; 3+ for complete epithelial layer structure; conditions: for wound area: ointment 100 μg/ml, 1 g per day, mean
Experimental: To compare wound healing activity between the recombinant βig-h3 protein His-β-b, which contains all of the four fas-1 domains, like native βig-h3 protein, and the recombinant βig-h3 protein βigh3-D-IV, which contains the 4th domain alone, ointment bases comprising the recombinant proteins were tested as follows.
Four dermal whole layer wounds, each 2 cm in diameter, were made on the backs of rats and divided into test groups 1-A, 1-B, 1-C and 1-D according to the ointment applied thereto.
1-A: coated at a dose of 1 gm per day with an ointment base combined with no materials.
1-B: coated at a dose of 1 gm per day with an ointment in which fibronectin was combined at a concentration of 100 μg/ml with a base.
1-C: coated at a dose of 1 g per day with an ointment in which Hisβ-b protein was combined at a concentration of 100 μg/ml with a base.
1-D: coated at a dose of 1 g per day with an ointment in which βigh3-D-IV protein was combined at a concentration of 100 μg/ml with a base.
The backs of etherized rats were shaved, followed by sterilizing the shaved region with betadin solution. In test group 1, the back of each rat was cut by use of a No. 15 surgical blade to form four circular wounds with a diameter of 2 cm penetrating the whole dermal layers. Ointments for test groups 1-A, 1-B, 1-C and 1-D were applied at an amount of about 1 g to the wounds which were then covered with a synthetic dressing (Tegaderm® 3M) and lightly bandaged. Application of ointments was performed once every day.
With a base of an aqueous material (SamA base), each of the ointments contained, per 1 g, spermaceti 38 mg, stearyl alcohol 116 mg, polyethylglycol 38 mg, conc. glycerin 192 mg, ethanol 23 mg, […], ethyl paraoxybenzoate 0.87 mg, butyl paraoxybenzoate 0.12 mg, and purified water.
First, morphologies of wounds were observed. The same scale was positioned near each wound and pictures were taken at the same distance from each wound. Pictures were scanned in a computer and used to measure areas of the wounds with the aid of NIH image analysis system (Bio-Optics). To take the pictures, the muscle was completely relaxed by etherizing the rats. Measurements were performed once every other day until the 22nd day. For comparing test groups, the measured values were analyzed according to ANOVA test and Scheffer's test.
Histological analysis was conducted under an optical microscope. Biopsies of wound sites were taken at days 3, 7, 10, 14 and 20, and fixed in 10% formalin and solidified with paraffin. 6 μm slices of the samples were dyed with hematoxylin-eosin (H&E) and Masson's trichrome before observation under a microscope. Wound healing effects according to time of each test material were evaluated through re-epithelialization and formation of collagenous fibers. In the case of re-epithelialization, epithelial formation was semi-quantified in such a way that zero was set for the formation of no epithelial layers, 1+ for initiation of epithelialization, 2+ for incomplete epithelial layer structure, and 3+ for complete epithelial layer structure. Regarding comparison among test groups and differences according to time within each group, measured values were statistically analyzed using ANOVA test and Scheffe's test. As for collagenous fiber formation, it was graded as 1+ for insignificant formation of collagenous fibers as observed with trichrome dye, 2+ for scatteringly spaced collagenous fibers, and 3+ for dense collagenous fibers.

[4] = tested on: K562 cells; experiment: K562 cell adhesion to coated proteins (hexosaminidase analysis); format: cell-based; conditions: 1 hour
Experimental: For another control experiment, K562 cells, known to express α5, but not α3 integrin, were used. K562 cells were inoculated onto plates coated with βigh3-WT, fibronectin, laminin, or type I collagen and incubated for 1 hour, followed by the hexosaminidase analysis.

[5] = tested on: circular dermal whole layer wounds on the back of each rat; experiment: Wound healing with chitosan base composites on dermal whole layer wounds (7 mm) of rats; format: in vivo; conditions: chitosan base with 500 μg/ml protein, Mean ± S.D
Experimental: Adult Spraque-Dawley lineage rats with a body weight of 250-300 gm were raised with standard feedstuff at a constant temperature and humidity.
In test group 2, four circular dermal whole layer wounds were made on the back of each rat and coated with chitosan bases combined with materials of interest:
2-A: wound coated with chitosan base only
2-B: wound coated with chitosan base in combination with 500 μg/ml of fibronectin
2-E: wound coated with chitosan base in combination with 500 μg/ml of βig-h3 D-IV 3X protein
2-F: wound coated with chitosan base in combination with 500 μg/ml of βig-h3 D-IV 4X protein
The composites based on chitosan were prepared as follows. 1 g of water soluble chitosan (poly(1-4) 2-amino-2-deoxy-β-D-glucan) with a molecular weight of 600,000 Da was dissolved in 100 ml of sterile distilled water and the resulting 1% solution was dispensed in aliquot of 2 ml to 12-well plate (Corning, USA), followed by the addition of 100 μg of gentamycin per well. Fibronectin, βigh3-D-IV 3X, and βigh3-D-IV 4X were individually added to a concentration of 500 μg/ml and frozen at −70° C., followed by freeze-drying in a freeze drier (Ilshin) for 12 hours to give disc-shaped composites.
The backs of etherized rats were shaved, followed by sterilizing the shaved region with betadin solution. Penetrating the whole dermal layers, four circular wounds with a diameter of 7 mm were formed on the back of each rat. The wounds were covered with composites used for test groups 2-A, 2-B, 2-E and 2-F, respectively, and then with Tegaderm® (3M) and lightly bandaged. The composites were changed with fresh ones every three days.
Wound healing effects were evaluated by determining appearances of the wounds as in Example 4-2.

[6] = tested on: Human corneal epithelial (HCE) cells; experiment: HCE cell adhesion and spreading assay on protein-coated plates; format: cell-based; conditions: HCE cells on coated protein, 1 hour at 37° C.
Experimental: Human corneal epithelial (HCE) cells used in this assay were cultured in DMEM ([…], Gibco BRL) supplemented with 15% fetal bovine serum, Gentamicin (40 μg/ml), insulin (5 μg/ml), cholera toxin (0.1 μg/ml) and human epidermal growth factor (hEGF) at 37° C. in 5% CO2.
The cell adhesion assay was performed as follows. First, the recombinant βig-h3 proteins or other extracellular matrix proteins were let to adhere to the bottoms of 96-well microculture plates (Falcon) by incubation at 37° C. for 1 hour and blocked with PBS containing 0.2% BSA. The coated extracellular matrix proteins were human plasma vitronectin (Promega), purified human plasma fibronectin (pFN), chicken collagen types I and II (Chemicon International Inc.), bovine collagen types IV and VI (Chemicon), mouse laminin (Chemicon), and bovine serum albumin (BSA) (Sigma). Cells were trypsinized and suspended in the culture media at a density of 2×10^5 cells/ml. 0.1 ml of the cell suspension was added to each well of the plates coated with the recombinant proteins.
Following incubation at 37° C. for 1 hour, unattached cells were removed by rinsing with PBS. Attached cells were incubated for 1 hour at 37° C. in 50 mM citrate buffer, pH 5.0, containing 3.75 mM p-nitrophenol-N-acetyl 1-β-D-glycosaminide as a hexosaminidase substrate and 0.25% Triton X-100, followed by the addition of 50 mM glycine buffer, pH 10.4, containing 5 mM EDTA to block the enzyme activity. A measurement was made of absorbance at 405 nm in a Multiskan MCC/340 microplate reader.
To determine cell area as an index for cell adhesion activity, 4×10^4 cells were applied to substrates in 48-well culture plates. The attached cells were fixed weith 8% glutaraldehyde (Sigma) and then stained with 0.25% Crystal Violet (Sigma) in 20% methanol. Measurement of cell areas was performed by Image-Pro plus software (Media Cybernetics). Experiments were repeated in triplicate with 200 or 300 measurements per site for each experiment. Data is reported as the mean area at specific time points±standard error of mean.

[Ca+2].[Cl-].[Cl-] [Ca^2+, CaCl2]
promotion of cell adhesion to βig-h3 by divalent cations [1]: only marginally

Fibronectin: positive control; purified human plasma fibronectin in cell assays, purified from citrated rat plasma for wound tests
inhibition of cell adhesion to fibronectin [2]: significantly inhibited
inhibition of cell adhesion to βig-h3 [2]: partially inhibited
wound area ([3]; Day 0): 3.17
wound area ([3]; Day 2): 2.38 cm²
Formation grade of collagenous fibers at wound ([3]; Day 3): 1+
Re-ephithelialization of Wound (grade) ([3]; Day 3): 0
wound area ([3]; Day 4): 2.01
wound area ([3]; Day 6): 1.83
Formation grade of collagenous fibers at wound ([3]; Day 7): 2+
Re-ephithelialization of Wound (grade) ([3]; Day 7): 1+
wound area ([3]; Day 8): 1.39 cm²
Formation grade of collagenous fibers at wound ([3]; Day 10): 2+
Re-ephithelialization of Wound (grade) ([3]; Day 10): 1+
wound area ([3]; Day 10): 1.26 cm²
wound area ([3]; Day 12): 0.54
Formation grade of collagenous fibers at wound ([3]; Day 14): 3+
Re-ephithelialization of Wound (grade) ([3]; Day 14): 2+
wound area ([3]; Day 14): 0.39
wound area ([3]; Day 16): 0.25
wound area ([3]; Day 18): 0.16
Formation grade of collagenous fibers at wound ([3]; Day 20): 3+
Re-ephithelialization of Wound (grade) ([3]; Day 20): 3+
wound area ([3]; Day 20): 0.12
wound area ([3]; Day 22): 0.06
reduction in wound area compared with ointment base alone ([3]; ointment application, p<0.05 versus group I-A): more quickly reduced
completion of re-epithelialization ([3]; optical microscope): 20 days
adhesion of K562 cells to coated protein [4]: adhered
Remaining wound area ([5]; Day 0): 49.2 ± 0.5 mm^2
Remaining wound area ([5]; Day 3): 24.1 ± 0.6^b mm^2
Remaining wound area ([5]; Day 6): 12.9 ± 0.6^b mm^2
Remaining wound area ([5]; Day 9): 9.7 ± 0.8^b mm^2
Remaining wound area ([5]; Day 12): 3.2 ± 0.4^b mm^2
Remaining wound area ([5]; Day 15): 0.8 ± 0.2^b mm^2

B1: βigh3-WT: wild-type human recombinant βig-h3 protein (SEQ ID NO: 22) (protein, UniProt Q15582 24-683, looked up)
Transforming growth …: GPAKSPYQLVLQHSRLRGRQHGPNVCAVQKVIGTNRKYFTNCKQWYQRKICGKSTVISYECCPGYEKVPGEKGCPAALPLSNLYETLGVVGSTTTQLYTDRTEKLRPEMEGPGSFTIFAPSNEAWASLPAEVLDSLVSNVNIELLNALRYHMVGRRVLTDELKHGMTLTSMYQNSNIQIHHYPNGIVTVNCARLLKADHHATNGVVHLIDKVISTITNNIQQIIEIEDTFETLRAAVAASGLNTMLEGNGQYTLLAPTNEAFEKIPSETLNRILGDPEALRDLLNNHILKSAMCAEAIVAGLSVETLEGTTLEVGCSGDMLTINGKAIISNKDILATNGVIHYIDELLIPDSAKTLFELAAESDVSTAIDLFRQAGLGNHLSGSERLTLLAPLNSVFKDGTPPIDAHTRNLLRNHIIKDQLASKYLYHGQTLETLGGKKLRVFVYRNSLCIENSCIAAHDKRGRYGTLFTMDRVLTPPMGTVMDVLKGDNRFSMLVAAIQSAGLTETLNREGVYTVFAPTNEAFRALPPRERSRLLGDAKELANILKYHIGDEILVSGGIGALVRLKSLQGDKLEVSLKNNVVSVNKEPVAEPDIMATNGVVHVITNVLQPPANRPQERGDELADSALEIFKQASAFSRASQRSVRLAPVYQKLLERMKH
inhibition of cell adhesion to fibronectin [2]: partially inhibited
inhibition of cell adhesion to βig-h3 [2]: significantly inhibited
adhesion of K562 cells to coated protein [4]: did not adhere
cell adhesion and spreading activity (numbers and surface areas of attached HCE cells) [6]: clearly greater than those attached to albumin
